Laboratory results published in PMC6264390, “Design, Synthesis and Structure-activity Studies of Rhodanine Derivatives as HIV-1 Integrase Inhibitors” (Molecules, 2010).
Like-named read-outs stand apart in the source and are kept apart here.

Assays:
HIV-1 IN = molecular target: T1, HIV-1 IN (Human immunodeficiency virus type 1 group M subtype B, UniProt P12497); experiment: In vitro IN inhibition assay (3’-processing and strand transfer); format: biochemical; settings: for IC50: Mn2+ cofactor (7.5 mM MnCl2)
T1 construct: pre-incubated with purified recombinant IN (at a final concentration of 200 nM); made in house
Procedure: (§1) All compounds were dissolved in DMSO to a final stock concentration of 10 mM and stored at −20 °C. Initial screening for IN inhibitory effect was done at 100 μM and dilutions were made in DMSO. Compounds showing at least 50% inhibition at 100 μM were selected for IC50 determinations. γ-[^32P]-ATP was purchased from Perkin Elmer (Waltham, MA, USA). The expression system for wild-type IN was a generous gift of Dr. Robert Craigie, Laboratory of Molecular Biology, NIDDK, NIH (Bethesda, MD, USA). His-tagged APE1 was purified from an expression system kindly provided by Dr. Tom Curran, Department of Developmental Neurobiology, St. Jude Children’s Research Hospital (Memphis, TN, USA).
(§2) 21-mer oligonucleotides used in IN inhibition assay [21top (5’-[…]-3’) and 21bot (5’-ACTGCTAGAGATTTTCCA CAC-3’)] were purchased from Integrated DNA Technologies (Coralville, IA, USA) and purified by UV shadowing on polyacrylamide gel. The oligonucleotides used in APE1 inhibition assay [top strand: 5′-ATTTCACCGGTACG(F)TCTAGAATC CG-3′ containing the tetrahydrofuran synthetic abasic residue (F), and bottom strand: 3′-TAAAGTGG CCATGC(C)AGATCTTAGGC-5′] were purchased from The Midland Certified Reagent Company (Midland, TX, USA). To analyze the extent of 3’-processing and strand transfer with 5’-end labeled substrates, 21top was 5’-end labeled using T4 polynucleotide kinase (Epicentre, Madison, WI, USA) and [γ-^32P]-ATP (Perkin Elmer, Waltham, MA, USA). The kinase was heat-inactivated at 95 °C and 21bot was added in […]. The reaction mixture was allowed to cool slowly to room temperature, and purified through a spin-25 minicolumn (USA Scientific, Ocala, FL, USA) to separate annealed double-stranded oligonucleotide from unincorporated material. The oligonucleotides used in the APE1 inhibition assay were labeled using a similar protocol.
To determine the extent of 3’-processing and strand transfer, the test compounds, diluted in DMSO, were pre-incubated with purified recombinant IN (at a final concentration of 200 nM) in the reaction buffer [50 mM NaCl, 1 mM HEPES (pH 7.5), 50 μM EDTA, 50 μM dithiothreitol, 10% glycerol (w/v), 7.5 mM MnCl2, 0.1 mg mL–1 bovine serum albumin, 10 mM 2-mercaptoethanol, 10% dimethyl sulfoxide, and 25 mM MOPS (pH 7.2)] at 30 °C for 30 min. For Mg^2+ assay, 7.5 mM MgCl2 was substituted for MnCl2 and an optimal concentration of PEG was included in the reaction buffer. Following the pre-incubation, 20 nM of the 5’-end ^32P-labeled linear oligonucleotide substrate was added to the reaction mixture and incubated for an additional 1 h. Reactions were quenched by addition of 50X loading dye (98% deionized formamide, 10 mM EDTA, 0.025% xylene cyanol, and 0.025 % bromophenol blue). An aliquot was subjected to electrophoresis on a denaturing polyacrylamide gel (0.09 M tris–borate, pH 8.3, 2 mM EDTA, 20% acrylamide, 8M urea). Gels were dried under vacuum, exposed in a PhosphorImager cassette and visualized with a Typhoon 8610 Variable Mode Imager (Amersham Biosciences). Quantification was done with Image Quant 5.2 software. Percent inhibition (%I) was calculated using the following equation: %I = 100 × [1 − (D − C) / (N − C)] where C, N, and D are the fractions of 21-mer substrate converted into 19-mer (product of 3’-processing) or strand-transfer products for DNA alone, DNA plus IN, and DNA, IN plus test compound, respectively. IC50 values were determined by plotting the logarithm of test compound concentrations as a function of %I to obtain the concentration that produced 50% inhibition.

[1] = molecular target: T2, human apurinic/apyrimidinic endonuclease 1 (APE1) (Homo sapiens, UniProt P27695); experiment: APE1 inhibition assay; format: biochemical; settings: read-out: Inhibition of APE1 catalytic activity IC50
T2 construct: His; made in house
Procedure: as §1, §2
APE1 inhibition assay was performed as previously described. To determine the extent of endonucleolytic cleavage of the abasic residue, the test compounds, diluted in DMSO, were preincubated with recombinant APE1 at a final concentration of 0.05 nM in the reaction buffer [50 mM NaCl, 1 mM HEPES, pH 7.5, 50 μM EDTA, 50 μM dithiothreitol, 10% glycerol (w/v), 7.5 mM MnCl2, 0.1 mg mL‑1 bovine serum albumin, 10 mM 2-mercaptoethanol, 10% DMSO, and 25 mM MOPS, pH 7.2] at 30 °C for 10 min. Following preincubation, 200 nM of the 5′-end ^32P-labeled linear oligonucleotide substrate was added, and incubated for an additional 10 minutes. Reactions were quenched by the addition of an equal volume (16 μL) of loading dye (98% deionized formamide, 10 mM EDTA, 0.025% xylene cyanol, and 0.025% bromophenol blue). An aliquot (5 μL) was electrophoresed on a denaturing 20% polyacrylamide gel (0.09 M tris-borate pH 8.3, 2 mM EDTA, 20% acrylamide, 8 M urea). The gels were dried, exposed in a PhosphorImager cassette and analyzed using a Typhoon 8610 Variable Mode Imager (Amersham Biosciences). Quantification of enzyme inhibition was done using Image Quant 5.2 software. The percent inhibition (% I) was calculated using the following equation: %I = 100 × [1 − (D − C) / (N − C)] where C, N, and D are the fractions of 26-mer substrate converted to 13-mer incision products (or integration products) for DNA alone, DNA plus APE1, and DNA, APE1 plus test compound, respectively. IC50 values were determined by plotting the logarithm of compound concentration as a function of %I to obtain the concentration that produced 50% inhibition. An optimum concentration of APE1 enzyme, at which there is complete conversion of the synthetic abasic-site containing oligonucleotide substrate to its cleaved product without subsequent exonuclease activity, was used in the assay.

[2] = read-out: Inhibition of IN catalytic activity IC50, 3’-Processing
[3] = read-out: Inhibition of IN catalytic activity IC50, Strand Transfer

T2 sequence (P27695 whole entry): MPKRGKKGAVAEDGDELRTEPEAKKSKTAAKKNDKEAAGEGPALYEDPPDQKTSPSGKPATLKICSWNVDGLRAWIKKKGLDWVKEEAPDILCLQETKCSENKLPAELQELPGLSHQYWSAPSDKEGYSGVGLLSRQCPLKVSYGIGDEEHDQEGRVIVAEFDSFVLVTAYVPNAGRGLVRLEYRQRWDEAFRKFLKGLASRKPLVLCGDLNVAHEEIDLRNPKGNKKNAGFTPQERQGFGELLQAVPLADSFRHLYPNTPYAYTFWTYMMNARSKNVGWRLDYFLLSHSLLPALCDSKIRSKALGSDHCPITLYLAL

In the case of `Cc1cc(NC(=O)C(=S)NN2C(=O)/C(=C\c3ccc([N+](=O)[O-])o3)SC2=S)ccc1-n1cnnn1` [Compound 21, N-[3-methyl-4-(1H-tetrazol-1-yl)phenyl]-2-{5-[(5-nitro-2-furyl)methylene]-4-oxo-2-thioxo-1,3-thia-zolidin-3-yl}amino-2-thioxoacetamide], the IC50 (HIV-1 IN; [2]) is reported as greater than 100 µM, the IC50 (HIV-1 IN; [3]) is reported as greater than 100 µM and the IC50 [1] is reported as greater than 100 µM. It also gave a melting point of 161 to 162 °C.

Work on `COc1ccc(NC(=O)C(=S)NN2C(=O)C(=Cc3ccc(Cl)cc3)SC2=S)cc1` [Compound 9, 2-{[5-(4-Chlorobenzylidene)-4-oxo-2-thioxo-1,3-thiazolidin-3-yl]amino}-N-(4-methoxyphenyl)-2-thioxoacetamide] yielded an IC50 (HIV-1 IN; [2]) of 33 µM, an IC50 (HIV-1 IN; [3]) of 33 µM and an IC50 [1] of 47 ± 2 µM. It also gave a melting point of 186 to 187 °C.

In the case of `COc1cc(Br)cc(C=C2SC(=S)N(NC(=S)C(=O)Nc3ccc(O)cc3)C2=O)c1O` [Compound 52, 2-{[5-(5-Bromo-2-hydroxy-3-methoxybenzylidene)-4-oxo-2-thioxo-1,3-thiazolidin-3-yl]amino}-N-(4-hydroxyphenyl)-2-thioxoacetamide], the IC50 (HIV-1 IN; [2]) is reported as 38 ± 27 µM, the IC50 (HIV-1 IN; [3]) is reported as 23 ± 9 µM and the IC50 [1] is reported as greater than 100 µM. For the same compound, the melting point was 176 to 177 °C.

For `COc1cc(NC(=O)C(=S)NN2C(=O)C(=Cc3cc(I)cc(I)c3O)SC2=S)cc(OC)c1OC` [Compound 39, 2-{[5-(2-Hydroxy-3,5-diiodobenzylidene)-4-oxo-2-thioxo-1,3-thiazolidin-3-yl]amino}-N-(3,4,5-trimethoxyphenyl)-2-thioxoacetamide], the “decrease in potency relative to 53” value (HIV-1 IN; IN inhibition, trimethoxy versus p-hydroxyl in ring A) was 10 fold, the IC50 (HIV-1 IN; [2]) was 47 ± 20 µM and the IC50 (HIV-1 IN; [3]) was 31 ± 16 µM. The IC50 [1] was greater than 100 µM and the melting point was 235 to 236 °C.

In the case of `CCOc1cccc(C=C2SC(=S)N(NC(=S)C(=O)Nc3ccc(O)cc3)C2=O)c1O` [Compound 45, 2-{[5-(3-Ethoxy-2-hydroxybenzylidene)-4-oxo-2-thioxo-1,3-thiazolidin-3-yl]amino}-N-(4-hydroxyphenyl)-2-thioxoacetamide], the IC50 (HIV-1 IN; [2]) is reported as greater than 100 µM, the IC50 (HIV-1 IN; [3]) is reported as greater than 100 µM and the IC50 [1] is reported as greater than 100 µM. The melting point was 184 to 185 °C.

`O=C(Nc1ccc(F)cc1)C(=S)NN1C(=O)C(=Cc2ccc([N+](=O)[O-])o2)SC1=S` [Compound 12, N-(4-fluorophenyl)-2-{5-[(5-nitro-2-furyl)methylene]-4-oxo-2-thioxo-1,3-thiazolidin-3-yl}amino-2-thioxoacetamide] gave an IC50 (HIV-1 IN; [2]) of 100 µM, an IC50 (HIV-1 IN; [3]) of 93 µM and an IC50 [1] of 89 ± 13 µM. For the same compound, the melting point was 155 to 156 °C.

With `COc1cc(C=C2SC(=S)N(NC(=S)C(=O)Nc3ccc(-n4cnnn4)c(C)c3)C2=O)cc(OC)c1OC` [Compound 24, N-[3-methyl-4-(1H-tetrazol-1-yl)phenyl]-2-{[4-oxo-2-thioxo-5-(3,4,5-trimethoxybenzylidene)-1,3-thiazolidin-3-yl]amino}-2-thioxoacetamide] the IC50 (HIV-1 IN; [2]) was greater than 100 µM, the IC50 (HIV-1 IN; [3]) was greater than 100 µM and the IC50 [1] was greater than 100 µM. For the same compound, the melting point was 173 to 174 °C.

Compound `COc1ccc(NC(=O)C(=S)NN2C(=O)C(=Cc3ccc([N+](=O)[O-])o3)SC2=S)cc1OC` [Compound 18, N-(3,4-dimethoxyphenyl)-2-{5-[(5-nitro-2-furyl)methylene]-4-oxo-2-thioxo-1,3-thiazolidin-3-yl}amino-2-thioxoacetamide] has an IC50 (HIV-1 IN; [2]) of 34 ± 10 µM, an IC50 (HIV-1 IN; [3]) of 14 ± 5 µM and an IC50 [1] greater than 100 µM. It also gave a melting point of 156 to 157 °C.

For `O=C(Nc1ccc(O)cc1)C(=S)NN1C(=O)C(=Cc2cc([N+](=O)[O-])ccc2O)SC1=S` [Compound 44, 2-{[5-(2-Hydroxy-5-nitrobenzylidene)-4-oxo-2-thioxo-1,3-thiazolidin-3-yl]amino}-N-(4-hydroxy-phenyl)-2-thioxoacetamide], the IC50 (HIV-1 IN; [2]) was 53 ± 8 µM, the IC50 (HIV-1 IN; [3]) was 45 ± 14 µM and the IC50 [1] was greater than 100 µM. For the same compound, the melting point was 199 to 200 °C.

`O=C(Nc1ccc(F)cc1)C(=S)NN1C(=O)C(=Cc2ccc(Cl)cc2)SC1=S` [Compound 6, 2-{[5-(4-Chlorobenzylidene)-4-oxo-2-thioxo-1,3-thiazolidin-3-yl]amino}-N-(4-fluorophenyl)-2-thioxo-acetamide] gave an IC50 (HIV-1 IN; [2]) greater than 100 µM, an IC50 (HIV-1 IN; [3]) greater than 100 µM and an IC50 [1] greater than 100 µM. For the same compound, the melting point was 204 to 205 °C.

Work on `Cc1ccc(C(=O)C=C2SC(=S)N(NC(=S)C(=O)Nc3ccccc3)C2=O)cc1` [Compound 11, 2-{5-[2-(4-Methylphenyl)-2-oxoethylidene]-4-oxo-2-thioxo-1,3-thiazolidin-3-yl}amino-N-phenyl-2-thioxoacetamide] yielded an IC50 (HIV-1 IN; [2]) of 58 ± 4 µM, an IC50 (HIV-1 IN; [3]) of 20 ± 6 µM and an IC50 [1] greater than 100 µM. It also gave a melting point of 147 to 148 °C.

`COc1cc(NC(=O)C(=S)NN2C(=O)C(=Cc3cc([N+](=O)[O-])ccc3O)SC2=S)cc(OC)c1OC` [Compound 30, 2-{[5-(2-Hydroxy-5-nitrobenzylidene)-4-oxo-2-thioxo-1,3-thiazolidin-3-yl]amino}-2-thioxo-N-(3,4,5-trimethoxyphenyl)acetamide] showed an IC50 (HIV-1 IN; [2]) of 47 ± 30 µM, an IC50 (HIV-1 IN; [3]) greater than 100 µM and an IC50 [1] greater than 100 µM. It also gave a melting point of 205 to 206 °C.

Work on `O=C(Nc1ccc(O)cc1)C(=S)NN1C(=O)C(=Cc2cc(Cl)cc(Cl)c2O)SC1=S` [Compound 50, 2-{[5-(3,5-Dichloro-2-hydroxybenzylidene)-4-oxo-2-thioxo-1,3-thiazolidin-3-yl]amino}-N-(4-hydroxy-phenyl)-2-thioxoacetamide] yielded an IC50 (HIV-1 IN; [2]) of 60 µM, an IC50 (HIV-1 IN; [3]) of 55 µM and an IC50 [1] greater than 100 µM. The melting point was 217 to 218 °C.

Compound `CCN(CC)c1ccc(C=C2SC(=S)N(NC(=S)C(=O)Nc3cc(OC)c(OC)c(OC)c3)C2=O)c(O)c1` [Compound 33, 2-({5-[4-(Diethylamino)-2-hydroxybenzylidene]-4-oxo-2-thioxo-1,3-thiazolidin-3-yl}amino)-2-thioxo-N-(3,4,5-trimethoxyphenyl)acetamide] has an IC50 (HIV-1 IN; [2]) greater than 100 µM, an IC50 (HIV-1 IN; [3]) greater than 100 µM and an IC50 [1] greater than 100 µM. It also gave a melting point of 210 to 211 °C.
